Test results from patent publication US7521232B2, “Emissive species for clinical imaging” (ICx Nomadics, Inc., priority 2006, dated 2009).

Assay: Solubility of isolated product in solvents
Format: physicochemical

SMILES	Solubility in DMF (DMF)	Solubility in acetone (acetone)	Solubility in hexanes (hexanes)	Solubility in water (water)
Cc1ccc(S(=O)(=O)OCCOCCOc2cc(I)c(OCCOCCOS(=O)(=O)c3ccc(C)cc3)cc2I)cc1	soluble	soluble		
OCCOCCOc1cc(I)c(OCCOCCO)cc1I			Not very soluble	Not very soluble
